Consider 35 molecules from BindingDB's records for doi:10.1021/jm000022w (Cor Therapeutics, 2000).

Starred links: 1 amine or outer side, 2 acyl side, 3 side chain; linkers in the order of their positions; H or OH if unused. Positions of bridges follow the written chain, without caps; N, C: chain ends. Non-standard residues stand in square brackets, D forms with d. Residues, ends and D or L forms follow the SMILES beside them. ξ: configuration not given here. Cys(O)(CH2CO) = O=C([C@H](C[S+]([O-])CC(=O)[*:3])N[*:1])[*:2]; NMeR = CN[C@@H](CCCNC(=N)N)C(=O)O; hArg = N=C(N)NCCCC[C@H](N)C(=O)O; 3Amb = NCc1cccc(C(=O)O)c1; ξR = N=C(N)NCCCC(N)C(=O)O; dAbu = CC[C@@H](N)C(=O)O; Mpa = O=C(O)CCS

The first test can be described thus: Inhibition of human platelet aggregation.
What is called IC50 is the concentration at which inhibition is half-maximal. For the molecule `CCCCOC(=O)N[C@@H](CNC(=O)C[C@H]1CC(c2ccc(C(=N)N)cc2)=NO1)C(=O)OC` [2-Butoxycarbonylamino-3-{2-[3-(4-carbamimidoyl-phenyl)-4,5-dihydro-isoxazol-5-yl]-acetylamino}-propionic acid methyl ester(DMP 754(roxifiban))], inhibition was half-maximal at 60 nM (IC50). For `CCOC(=O)CN1CCN(C[C@@H]2CN(c3ccc(C(N)=NC(=O)OC)cc3)C(=O)O2)CC1` [Gantofiban], the IC50 is 8 nM.

The next test in a line: Inhibition of platelet aggregation.
Molecule `Cc1c(C(=O)NCCC(=O)O)s/c(=N\C(=O)c2ccc(C(=N)N3CCC4(CC3)OCCO4)cc2)n1C` [3-[(2-{4-[(1,4-Dioxa-8-aza-spiro[4.5]dec-8-yl)-imino-methyl]-benzoylimino}-3,4-dimethyl-2,3-dihydro-thiazole-5-carbonyl)-amino]-propionic acid (PSA0613)] displayed an IC50 of 22 nM. On the same count and under the same terms, for `CCOC(=O)CCN(c1ncc(-c2ccc(C(N)=NC(=O)OCC)cc2)s1)C1CCN(CC(=O)OCC)CC1` [3-[{5-[4-(Ethoxycarbonylamino-imino-methyl)-phenyl]-thiazol-2-yl}-(1-ethoxycarbonylmethyl-piperidin-4-yl)-amino]-propionic acid ethyl ester (SR121787)] the value was more than 90 nM.

The next test in a line: Inhibition of […] and platelet aggregation in human platelet rich plasma.
Turning to `C[C@@H](COc1ccc(N2CCN(c3ccncc3)CC2)cc1)CC(=O)O` [3-Methyl-4-[4-(4-pyridin-4-yl-piperazin-1-yl)-phenoxy]-butyric acid (ZD 2486)], the IC50 worked out at 50 nM. Still for that read-out and setting: then `N=C(N)c1ccc(N2CCN(c3ccc(OCC(=O)O)cc3)CC2)cc1` [{4-[4-(4-Carbamimidoyl-phenyl)-piperazin-1-yl]-phenoxy}-acetic acid], with 20 nM; and `[H]/N=C(/N)c1ccc(N2CCN(C3CCN(CC(=O)O)CC3)CC2)cc1` [{4-[4-(4-Carbamimidoyl-phenyl)-piperazin-1-yl]-piperidin-1-yl}-acetic acid (GR 144053)], with 59 nM.

Another test can be described thus: Inhibition of human platelet aggregation. The source holds these as a separate data set.
Consider `CC(C)CC(=O)N[C@@H](CCCCNC(=O)c1ccc(C(=N)N)cc1)CC(=O)O` [7-(4-Carbamimidoyl-benzoylamino)-3-(3-methyl-butyrylamino)-heptanoic acid (GPI 562)], for which the midpoint of inhibition, the IC50, lay at 15 nM.

Another test is described as follows: Inhibition of human platelet aggregation collected with sodium citrate as anticoagulant.
`N=C(N)NCCCC[C@@H]1NC(=O)CCSSC[C@@H](C(N)=O)NC(=O)[C@@H]2CCCN2C(=O)[C@H](Cc2c[nH]c3ccccc23)NC(=O)[C@H](CC(=O)O)NC(=O)CNC1=O` ([Mpa][hArg]GDWPC-NH2; disulfide 1-7): half-maximal inhibition (IC50) required 140 nM.

A short description of the next test: Inhibition of platelet aggregation. This is another data set of the same source.
Molecule `CC(=O)NC(CCCNC(=N)N)C(=O)NCC(=O)N[C@@H](CC(=O)O)C(=O)N[C@H](C(N)=O)C(C)C` (stereo not given in full) [3-[2-(2-Acetylamino-5-guanidino-pentanoylamino)-acetylamino]-N-(1-carbamoyl-2-methyl-propyl)-succinamic acid] (Ac-[ξR]GDV-NH2) had an IC50 of 32000 nM.

Take `COc1ccc(C[C@H](NC(=O)[C@H](CC(=O)O)NC(=O)CNC(=O)[C@@H](N)CCCNC(=N)N)C(N)=O)cc1` [SC-46749] (H-RGDY(Me)-NH2): half-maximal inhibition (IC50) required 32000 nM.

A further test can be described thus: Inhibition of human gel filtered platelet aggregation induced by ADP.
For `C[C@@]1(c2ccc(C(=N)N)cc2)NC(=O)N(CC(=O)NC(CC(=O)O)c2ccccc2)C1=O` (stereo not given in full) [3-{2-[4-(4-Carbamimidoyl-phenyl)-4-methyl-2,5-dioxo-imidazolidin-1-yl]-acetylamino}-3-phenyl-propionic acid(S1197)], the IC50 is 20 nM.

The next test is described as follows: Inhibition of human platelet aggregation. This is another data set of the same source.
As to `CC[C@H]1NC(=O)c2cccc(c2)CNC(=O)[C@H](CC(=O)O)NC(=O)CNC(=O)[C@H](CCCN=C(N)N)N(C)C1=O` [DMP-728] (cyclo([NMeR]GD[3Amb][dAbu])), the IC50 was 46 nM.

A short description of a further test: In vitro inhibition of gel filtered platelet aggregation induced by ADP.
`[H]/N=C(/N)c1ccc(C2=NO[C@@H](CC(=O)NC[C@H](NC(=O)OCCCC)C(=O)O)C2)cc1`: the IC50 came out at 60 nM. The same measure, in the same setting: then `Cc1noc(C)c1S(=O)(=O)N[C@@H](CNC(=O)C1CCC2(CC1)CCN(c1ccncc1)CC2)C(=O)O` [2-(3,5-Dimethyl-isoxazole-4-sulfonylamino)-3-[(3-pyridin-4-yl-3-aza-spiro[5.5]undecane-9-carbonyl)-amino]-propionic acid], with 44 nM. Molecule `Cc1noc(C)c1S(=O)(=O)N[C@@H](CCC(=O)N1CCC2(CC1)CCN(c1ccncc1)CC2)C(=O)O` [2-(3,5-Dimethyl-isoxazole-4-sulfonylamino)-5-oxo-5-(9-pyridin-4-yl-3,9-diaza-spiro[5.5]undec-3-yl)-pentanoic acid] showed an IC50 of 21 nM. On the same count and under the same terms, then `CCCCS(=O)(=O)NC(CC#Cc1ccc2[nH]c(=O)n(CCC3CCNCC3)c(=O)c2c1)C(=O)O` (stereo not given) [2-(Butane-1-sulfonylamino)-5-[2,4-dioxo-3-(2-piperidin-4-yl-ethyl)-1,2,3,4-tetrahydro-quinazolin-6-yl]-pent-4-ynoic acid], with 37 nM; and `CCCCS(=O)(=O)NC(CC#Cc1ccc2nc(C)n(CCC3CCNCC3)c(=O)c2c1)C(=O)O` (stereo not given) [2-(Butane-1-sulfonylamino)-5-[2-methyl-4-oxo-3-(2-piperidin-4-yl-ethyl)-3,4-dihydro-quinazolin-6-yl]-pent-4-ynoic acid], with 43 nM; and `O=C(NC[C@H](NS(=O)(=O)c1ccccc1)C(=O)O)c1cc2cc(OCC3CCNCC3)ccc2[nH]1` [2-Benzenesulfonylamino-3-{[5-(piperidin-4-ylmethoxy)-1H-indole-2-carbonyl]-amino}-propionic acid(L-756568)], with 13 nM. With `Cc1ccc(S(=O)(=O)N[C@@H](CCC(=O)N2CCC3(CC2)C(=O)N(c2ccc(C(=N)N)cc2)C(=O)N3C)C(=O)O)cc1` [5-[3-(4-Carbamimidoyl-phenyl)-1-methyl-2,4-dioxo-1,3,8-triaza-spiro[4.5]dec-8-yl]-5-oxo-2-(toluene-4-sulfonylamino)-pentanoic acid], the IC50 stood at 59 nM.

In turn, `CCCCS(=O)(=O)N[C@@H](CNC(=O)c1cc2n(n1)CCN(CCC1CCNCC1)C2=O)C(=O)O` [(S)-2-(Butane-1-sulfonylamino)-3-{[4-oxo-5-(2-piperidin-4-yl-ethyl)-4,5,6,7-tetrahydro-pyrazolo[1,5-a]pyrazine-2-carbonyl]-amino}-propionic acid] came in with an IC50 of 9 nM.

For `O=C(NC[C@H](NS(=O)(=O)c1ccccc1)C(=O)O)c1cc2c(s1)CCN(CCC1CCNCC1)C2=O` [(S)-2-Benzenesulfonylamino-3-{[4-oxo-5-(2-piperidin-4-yl-ethyl)-4,5,6,7-tetrahydro-thieno[3,2-c]pyridine-2-carbonyl]-amino}-propionic acid], the IC50 amounted to 8 nM. Turning to `Cc1ccc(S(=O)(=O)N[C@@H](CNC(=O)c2ccc3oc(-c4ccc(C(=N)N)cc4)nc3c2)C(=O)O)cc1` [(S)-3-{[2-(4-Carbamimidoyl-phenyl)-benzooxazole-5-carbonyl]-amino}-2-(toluene-4-sulfonylamino)-propionic acid], the IC50 came to 10 nM. Same read-out and setting: then `C#C[C@H](CC(=O)O)NC(=O)CN1CCc2ccc(N3CCNCC3)cc2C1=O` [L-767679], with 12 nM; and `N=C(N)c1ccc(C(=O)Nc2ccc3c(c2)CCC(CC(=O)O)C3=O)cc1` (stereo not given) [[6-(4-Carbamimidoyl-benzoylamino)-1-oxo-1,2,3,4-tetrahydro-naphthalen-2-yl]-acetic acid], with 60 nM; and `N=C(N)c1ccc(C(=O)Nc2ccc3c(c2)CCC(CC(=O)O)O3)cc1` (stereo not given) [[6-(4-Carbamimidoyl-benzoylamino)-chroman-2-yl]-acetic acid], with 190 nM. Turning to `N=C(c1ccc(C(=O)Nc2ccc3c(c2)C[C@@H](CC(=O)O)CO3)cc1)N1CCOCC1` [{(S)-6-[4-(Imino-morpholin-4-yl-methyl)-benzoylamino]-chroman-3-yl}-acetic acid], the IC50 was 35 nM.

The nature of another test: Inhibition of platelet aggregation. This is another data set of the same source.
In turn, `N=C(N)c1ccc(C(=O)Nc2cccc(C(=O)NCCC(=O)O)c2)cc1` showed a 50% inhibitory concentration (IC50) of 200 nM. `[H]/N=C(/N)c1ccc(C(=O)N[C@@H](Cc2ccc(O)cc2)C(=O)N2CCC(OCC(=O)O)CC2)cc1` returned an IC50 of 30 nM. As for `CC(C)[C@H](NC(=O)[C@H](CC(=O)O)NC(=O)CNC(=O)Cc1ccc(C(=N)N)cc1)C(=O)O`, the IC50 worked out at 300 nM.

Molecule `CC(C)[C@H](NC(=O)[C@H](CC(=O)O)NC(=O)CCNC(=O)c1ccc(C(=N)N)cc1)C(=O)O` [2-{2-[3-(4-Carbamimidoyl-benzoylamino)-propionylamino]-3-carboxy-propionylamino}-3-methyl-butyric acid (Ro 43-5054)] showed an IC50 of 30 nM.

Turning to `N=C(N)NCCC[C@@H]1NC(=O)[C@@H](Cc2ccc(O)cc2)NC(=O)C[S+]([O-])C[C@@H](C(=O)O)NC(=O)[C@H](CC(=O)O)NC(=O)CNC1=O` (stereo not given in full) [6-Carboxymethyl-12-(3-guanidino-propyl)-15-(4-hydroxy-benzyl)-1,5,8,11,14,17-hexaoxo-1lambda*4*-thia-4,7,10,13,16-pentaaza-cyclooctadecane-3-carboxylic acid (G4120)] ([dY]RGD[Cys(O)(CH2CO)]-OH; lactam N-5), the IC50 came out at 150 nM. The same measure, in the same setting: then `CN(CC(=O)c1ccc(OCC(=O)O)c(OCC(=O)O)c1)C(=O)c1ccc(C(=N)N)cc1` [(4-{2-[(4-Carbamimidoyl-benzoyl)-methyl-amino]-acetyl}-2-carboxymethoxy-phenoxy)-acetic acid], with 70 nM.

Another test can be described thus: Inhibition of ADP-induced platelet aggregation in human platelet rich plasma.
On to `CN(C(=O)c1ccc2c(c1)CN(CCc1ccccc1)C(=O)C(CC(=O)O)N2)c1ccc(C(=N)N)cc1` (stereo not given) [{7-[(4-Carbamimidoyl-phenyl)-methyl-carbamoyl]-3-oxo-4-phenethyl-2,3,4,5-tetrahydro-1H-benzo[e][1,4]diazepin-2-yl}-acetic acid], for which the half-maximal inhibitory concentration (IC50) was found to be 160 nM.

Molecule `CN(C(=O)c1ccc2c(c1)NC(CC(=O)O)C(=O)N(CCc1ccccc1)C2)c1ccc(C(=N)N)cc1` (stereo not given) [{8-[(4-Carbamimidoyl-phenyl)-methyl-carbamoyl]-3-oxo-4-phenethyl-2,3,4,5-tetrahydro-1H-benzo[e][1,4]diazepin-2-yl}-acetic acid(SB-208651)] had an IC50 of 65 nM.
